Reference: patent publication US20260317344A1, “EGFR INHIBITORS FOR TREATING DISEASE” (BLOSSOMHILL THERAPEUTICS, INC., priority 2023, published 2026)

What was measured:
[1] = system: NCI-H1975 cells; assay: 5-Day CellTiter Glo (CTG) cell proliferation assay, NCI-H1975; format: cell-based; conditions: Homo sapiens; NCI-H1975 cells (L858R/T790M EGFR), 5-day CTG proliferation, 120 hours; read-out: H1975 IC50
Procedure: (§1) 5-Day CellTiter Glo (CTG) Cell Proliferation Assays (PC9, H1975, H827)
(§2) Cell proliferation assays were carried out in NSCLC cells with EGFR activation mutations. Both PC-9 cells and HCC827 cells (purchased from DSMZ) carry a Glu746-Ala750 deletion (d746-750) mutation in exon 19 of the EGFR gene and NCI-H1975 cells carry both L858R activation mutation and T790M gatekeeper mutation in the EGFR gene. One thousand PC-9, NCI-H1975 or HCC827 cells/100 μL per well were seeded in 96-well black plate with transparent bottom and then treated with indicated compounds in a 9-dose dilution series dispensed using TECAN d300e liquid dispenser. Cells were incubated with compounds for 120 hours at 37° C. and 5% CO2. Cell proliferation was measured using CellTiter-Glo 2.0 luciferase-based ATP detection assay (Promega, Madison, WI) at […] per well following the manufacturer's protocol. Plates were then read on a TECAN Sparks multimode microplate reader. Data was analyzed using GraphPad Prism 9 (GraphPad Software, San Diego, CA) to obtain IC50 values.

[2] = target: EGFR (D770_N771insNPG) (Homo sapiens, UniProt P00533, INS770NPG); assay: HotSpot radiometric kinase assay, inhibition of EGFR (D770_N771insNPG) mutant; format: biochemical; conditions: 33P ATP, room temperature, 120 m
Procedure: (§3) Biochemical Assays for inhibition of wild-type and mutant EGFRs
(§4) Briefly, specific kinase/substrate pairs along with required cofactors were prepared in reaction buffer; 20 mM HEPES pH 7.5, 10 mM […], 1 mM EGTA, 0.02% Brij35, 0.02 mg/ml BSA, 0.1 mM Na3VO4, 2 mM DTT, 1% DMSO. Compounds were delivered into the reaction, followed ~20 minutes later by addition of a mixture of ATP (Sigma, St. Louis MO) and ^33P ATP (Perkin Elmer, Waltham MA) to a final concentration of […]. Reactions were carried out at room temperature for 120 m, followed by spotting of the reactions onto P81 ion exchange filter paper (Whatman Inc., Piscataway, NJ). Unbound phosphate was removed by extensive washing of filters in 0.75% phosphoric acid. […] IC50 values and curve fits were obtained using Prism (GraphPad Software).

[3] = target: T1, pEGFR, A431 cells (wildtype EGFR) (Homo sapiens, UniProt P00533); assay: Cellular EGFR phosphorylation assay (LANCE Ultra TR-FRET) in A431 cells; format: cell-based; conditions: 4 hours at 37° C., 40 ng/mL EGF for the final 10 minutes, read-out: A431 pEGFR IC50
T1 construct: pEGFR (Tyr1068) TR-FRET
Procedure: (§5) Cellular EGFR Phosphorylation Assays
(§6) EGFR phosphorylation assays were conducted in NSCLC cells with EGFR activation mutations. PC-9 cells (purchased from Aldrich-Sigma) carry a Glu746-Ala750 deletion (d746-750) mutation in exon 19 of the EGFR gene and NCI-H1975 cells (purchased from ATCC) carry both L858R activation mutation and T790M gatekeeper mutation in the EGFR gene. A431 cells (purchased from ATCC) with amplification of wildtype EGFR, derived from epidermoid carcinoma, were used to measure the activity against wildtype EGFR. All cells were seeded in 96-well plates. For PC-9 and NCI-H1975 cells, 50 thousand cells were seeded per well. For A431 cells, 30 thousand cells were seeded per well. The next day, cells were exposed to compound for 4 hours at 37° C. and 5% CO2. Compounds were diluted in DMSO and added to cells in a 9-dose, 3-fold dilution, titration curve using TECAN d300e liquid dispenser. For A431 cells, 40 ng/mL of EGF was added to the media for the final 10 minutes of incubation. EGFR phosphorylation was measured using phospho-EGFR (Try1068) LANCE Ultra TR-FRET Detection Kit (TRF4015M) from PerkinElmer according to manufacturer's instructions. In brief, cells were lysed with 40 μL of lysis buffer plus 1× Halt protease and phosphatase inhibitor cocktail (Thermo 78441) and by incubation at room temperature for 1 h on a microplate shaker (350 rpm). 15 μ L of cell lysate was transferred to 384-well white plate and 5 μL of Europium- and ULight-labeled antibodies diluted in 1× detection buffer was added to each well. After 4-6 hours of incubation at room temperature, plates were then read on a TECAN Sparks multimode microplate reader. Data was analyzed using GraphPad Prism 9 (GraphPad Software, San Diego, CA) to obtain IC50 values.

[4] = system: PC-9 cells; assay: 5-Day CellTiter Glo (CTG) cell proliferation assay, PC-9; format: cell-based; conditions: Homo sapiens; PC-9 cells (d746-750 EGFR), 5-day CTG proliferation, 120 hours; read-out: PC-9 IC50
Procedure: as §1, §2

[5] = target: T2, pEGFR, NCI-H1975 cells (L858R/T790M EGFR) (Homo sapiens, UniProt P00533, L858R/T790M); assay: Cellular EGFR phosphorylation assay (LANCE Ultra TR-FRET) in NCI-H1975 cells; format: cell-based; conditions: 4 hours at 37° C., read-out: H1975 pEGFR IC50
T2 construct: pEGFR (Tyr1068) TR-FRET
Procedure: as §5, §6

[6] = target: T3, pEGFR, PC-9 cells (d746-750 EGFR) (Homo sapiens, UniProt P00533, DEL746-750); assay: Cellular EGFR phosphorylation assay (LANCE Ultra TR-FRET) in PC-9 cells; format: cell-based; conditions: 4 hours at 37° C., read-out: PC-9 pEGFR IC50
T3 construct: pEGFR (Tyr1068) TR-FRET
Procedure: as §5, §6

[7] = target: EGFR (D746-750/C797S) (Homo sapiens, UniProt P00533, C797S/DEL746-750); assay: HotSpot radiometric kinase assay, inhibition of EGFR 746-750/C797S mutant; format: biochemical; conditions: 33P ATP, room temperature, 120 m
Procedure: as §3, §4

[8] = target: EGFR (L858R/T790M/C797S) (Homo sapiens, UniProt P00533, C797S/L858R/T790M); assay: HotSpot radiometric kinase assay, inhibition of EGFR L858R/T790M/C797S mutant; format: biochemical; conditions: 33P ATP, room temperature, 120 m
Procedure: as §3, §4

[9] = target: EGFR (D746-750) (Homo sapiens, UniProt P00533, DEL746-750); assay: HotSpot radiometric kinase assay, inhibition of EGFR 746-750 mutant; format: biochemical; conditions: 33P ATP, room temperature, 120 m
Procedure: as §3, §4

[10] = system: HCC827 cells; assay: 5-Day CellTiter Glo (CTG) cell proliferation assay, HCC827; format: cell-based; conditions: Homo sapiens; HCC827 cells (d746-750 EGFR), 5-day CTG proliferation, 120 hours; read-out: HCC827 IC50
Procedure: as §1, §2

EGFR (D770_N771insNPG), sequence (P00533 with tags, fused parts or gaps INS770NPG limits assumed): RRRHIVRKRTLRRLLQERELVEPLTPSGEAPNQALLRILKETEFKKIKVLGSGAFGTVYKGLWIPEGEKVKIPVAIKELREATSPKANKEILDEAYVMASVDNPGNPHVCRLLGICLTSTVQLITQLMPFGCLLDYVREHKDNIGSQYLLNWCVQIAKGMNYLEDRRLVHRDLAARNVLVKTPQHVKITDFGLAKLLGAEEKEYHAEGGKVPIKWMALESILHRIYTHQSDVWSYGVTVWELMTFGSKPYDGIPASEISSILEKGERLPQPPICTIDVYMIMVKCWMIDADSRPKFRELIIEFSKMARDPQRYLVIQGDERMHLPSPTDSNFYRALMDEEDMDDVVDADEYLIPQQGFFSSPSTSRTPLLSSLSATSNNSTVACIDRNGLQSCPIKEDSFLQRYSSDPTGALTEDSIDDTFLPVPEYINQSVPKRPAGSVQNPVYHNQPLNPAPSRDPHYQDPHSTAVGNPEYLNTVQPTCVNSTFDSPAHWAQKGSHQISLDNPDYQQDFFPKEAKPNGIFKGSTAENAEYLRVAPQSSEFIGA
EGFR (L858R/T790M/C797S), sequence (P00533 25-1210 T790M/C797S/L858R): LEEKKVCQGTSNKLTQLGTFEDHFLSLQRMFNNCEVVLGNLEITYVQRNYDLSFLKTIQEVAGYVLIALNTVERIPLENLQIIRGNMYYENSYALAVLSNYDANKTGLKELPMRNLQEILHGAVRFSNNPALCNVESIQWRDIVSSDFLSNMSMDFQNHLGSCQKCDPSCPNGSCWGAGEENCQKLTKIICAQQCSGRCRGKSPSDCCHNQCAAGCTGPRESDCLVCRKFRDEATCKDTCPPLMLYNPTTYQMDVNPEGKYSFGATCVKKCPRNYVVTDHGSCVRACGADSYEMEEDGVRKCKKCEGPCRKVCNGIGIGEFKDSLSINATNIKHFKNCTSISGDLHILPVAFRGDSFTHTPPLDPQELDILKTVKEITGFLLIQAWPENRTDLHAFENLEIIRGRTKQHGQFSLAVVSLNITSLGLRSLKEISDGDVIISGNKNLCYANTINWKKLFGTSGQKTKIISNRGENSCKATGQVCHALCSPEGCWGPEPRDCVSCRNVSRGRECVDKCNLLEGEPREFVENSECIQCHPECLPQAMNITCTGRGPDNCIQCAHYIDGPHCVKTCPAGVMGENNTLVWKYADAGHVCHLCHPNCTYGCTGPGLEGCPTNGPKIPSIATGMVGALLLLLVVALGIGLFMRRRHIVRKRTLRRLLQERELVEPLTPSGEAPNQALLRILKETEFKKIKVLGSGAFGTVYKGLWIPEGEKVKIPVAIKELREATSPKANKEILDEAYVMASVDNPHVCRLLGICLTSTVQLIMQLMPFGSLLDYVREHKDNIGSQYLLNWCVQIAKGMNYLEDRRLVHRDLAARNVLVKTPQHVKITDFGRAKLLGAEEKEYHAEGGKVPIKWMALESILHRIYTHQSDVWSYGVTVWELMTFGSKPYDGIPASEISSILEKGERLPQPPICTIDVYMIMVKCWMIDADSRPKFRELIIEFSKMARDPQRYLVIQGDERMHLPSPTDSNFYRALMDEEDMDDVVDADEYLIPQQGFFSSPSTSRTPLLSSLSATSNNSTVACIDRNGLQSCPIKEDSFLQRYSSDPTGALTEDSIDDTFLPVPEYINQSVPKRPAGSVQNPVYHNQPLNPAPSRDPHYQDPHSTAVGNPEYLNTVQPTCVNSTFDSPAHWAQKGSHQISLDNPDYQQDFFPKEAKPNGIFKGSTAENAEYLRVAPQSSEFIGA
T1 sequence (P00533 25-1210): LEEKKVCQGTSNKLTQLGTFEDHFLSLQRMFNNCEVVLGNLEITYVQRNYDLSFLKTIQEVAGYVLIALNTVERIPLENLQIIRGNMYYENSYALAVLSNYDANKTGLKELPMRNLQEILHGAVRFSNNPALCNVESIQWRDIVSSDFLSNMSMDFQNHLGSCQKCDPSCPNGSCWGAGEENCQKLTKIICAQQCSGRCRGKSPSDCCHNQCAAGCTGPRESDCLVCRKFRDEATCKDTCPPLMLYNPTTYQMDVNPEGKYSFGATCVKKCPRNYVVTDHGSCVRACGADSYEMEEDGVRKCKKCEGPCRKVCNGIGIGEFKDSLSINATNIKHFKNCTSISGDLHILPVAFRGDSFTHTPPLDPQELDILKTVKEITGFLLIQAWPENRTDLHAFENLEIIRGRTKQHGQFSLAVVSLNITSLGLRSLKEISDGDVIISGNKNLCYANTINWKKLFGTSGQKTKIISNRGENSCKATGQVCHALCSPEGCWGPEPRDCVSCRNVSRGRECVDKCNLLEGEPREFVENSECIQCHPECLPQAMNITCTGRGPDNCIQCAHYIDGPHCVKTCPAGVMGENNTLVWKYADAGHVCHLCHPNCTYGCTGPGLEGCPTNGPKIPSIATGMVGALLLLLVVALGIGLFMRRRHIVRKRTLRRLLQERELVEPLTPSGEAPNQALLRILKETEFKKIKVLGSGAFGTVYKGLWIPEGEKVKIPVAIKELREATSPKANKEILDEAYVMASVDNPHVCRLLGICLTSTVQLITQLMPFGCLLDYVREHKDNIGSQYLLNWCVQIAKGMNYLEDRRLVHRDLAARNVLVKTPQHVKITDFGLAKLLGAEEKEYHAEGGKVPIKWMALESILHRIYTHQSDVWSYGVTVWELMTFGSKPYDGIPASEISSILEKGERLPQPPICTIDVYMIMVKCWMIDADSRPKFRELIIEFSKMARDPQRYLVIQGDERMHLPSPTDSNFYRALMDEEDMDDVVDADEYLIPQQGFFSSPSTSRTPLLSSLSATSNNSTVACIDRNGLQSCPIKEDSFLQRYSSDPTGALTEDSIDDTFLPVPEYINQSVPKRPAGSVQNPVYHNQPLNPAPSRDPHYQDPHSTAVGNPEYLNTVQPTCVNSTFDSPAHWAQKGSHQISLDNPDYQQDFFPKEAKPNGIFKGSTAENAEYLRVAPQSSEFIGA
EGFR (D746-750/C797S), sequence (P00533 with tags, fused parts or gaps DEL746-750/C797S): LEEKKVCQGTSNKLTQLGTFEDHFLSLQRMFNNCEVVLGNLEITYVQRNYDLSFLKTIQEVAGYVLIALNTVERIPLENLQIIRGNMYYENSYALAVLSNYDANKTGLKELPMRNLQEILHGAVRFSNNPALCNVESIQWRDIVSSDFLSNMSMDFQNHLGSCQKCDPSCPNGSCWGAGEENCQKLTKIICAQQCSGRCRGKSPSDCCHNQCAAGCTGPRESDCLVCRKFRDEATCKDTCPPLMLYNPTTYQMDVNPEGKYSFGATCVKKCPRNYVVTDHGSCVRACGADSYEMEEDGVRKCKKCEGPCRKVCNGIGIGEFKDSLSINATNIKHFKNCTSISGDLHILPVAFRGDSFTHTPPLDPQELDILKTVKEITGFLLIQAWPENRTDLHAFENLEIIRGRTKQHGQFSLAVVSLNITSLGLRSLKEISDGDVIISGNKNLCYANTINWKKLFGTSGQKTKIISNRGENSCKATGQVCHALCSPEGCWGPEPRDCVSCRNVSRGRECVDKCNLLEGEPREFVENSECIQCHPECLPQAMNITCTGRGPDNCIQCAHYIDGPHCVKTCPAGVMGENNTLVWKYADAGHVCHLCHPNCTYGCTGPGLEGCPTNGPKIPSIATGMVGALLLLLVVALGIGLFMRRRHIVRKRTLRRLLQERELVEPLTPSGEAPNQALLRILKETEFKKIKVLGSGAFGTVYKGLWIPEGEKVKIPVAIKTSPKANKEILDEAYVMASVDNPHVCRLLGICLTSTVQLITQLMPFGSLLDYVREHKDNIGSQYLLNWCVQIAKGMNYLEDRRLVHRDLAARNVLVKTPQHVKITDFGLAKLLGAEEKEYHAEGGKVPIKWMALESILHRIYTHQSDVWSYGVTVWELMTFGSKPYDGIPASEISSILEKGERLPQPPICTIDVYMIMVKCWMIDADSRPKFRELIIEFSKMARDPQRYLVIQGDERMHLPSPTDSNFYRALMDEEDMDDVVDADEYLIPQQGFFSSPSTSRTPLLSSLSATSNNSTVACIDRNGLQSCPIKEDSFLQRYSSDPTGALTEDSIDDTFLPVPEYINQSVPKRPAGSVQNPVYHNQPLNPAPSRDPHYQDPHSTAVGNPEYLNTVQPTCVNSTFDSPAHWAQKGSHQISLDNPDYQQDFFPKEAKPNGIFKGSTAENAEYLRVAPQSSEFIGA

`CCc1nn(CCO)c2c1/C=C/c1n[nH]c3cnc(cc13)-c1c(C)nn(C)c1O[C@@H](C)CN(CC)C2` [Ex. 62, 2-[(10S,17E)-12,16-diethyl-6,8,10-trimethyl-2,8,10,11,12,13-hexahydro-14H-5,3-(azenometheno)tripyrazolo[3,4-f:3′,4′-j:4″,3″-n][1,4]oxazacyclopentadecin-14-yl]ethan-1-ol] showed an IC50 [1] of 16.9 nM, an IC50 [2] of 0.42 nM and an IC50 [3] of 13.2 nM. It also gave an IC50 [4] of 1.08 nM, an IC50 [5] of 1.54 nM and an IC50 [6] of 1.13 nM. The IC50 [7] was 1.58 nM, the IC50 [8] was 0.74 nM and the IC50 [9] was 0.42 nM. It also gave an IC50 [10] of 0.44 nM.

In the case of `CCc1nn([C@@H](C)CO)c2c1/C=C/c1n[nH]c3cnc(cc13)-c1c(C)nn(C)c1O[C@@H](C)CN(C)C2` [Ex. 61, (2S)-2-[(10S,17E)-16-ethyl-6,8,10,12-tetramethyl-2,8,10,11,12,13-hexahydro-14H-5,3-(azenometheno)tripyrazolo[3,4-f:3′,4′-j:4″,3″-n][1,4]oxazacyclopentadecin-14-yl]propan-1-ol], the IC50 [1] is reported as 74.7 nM, the IC50 [2] is reported as 0.7 nM and the IC50 [3] is reported as 21 nM. It also gave an IC50 [4] of 3.55 nM, an IC50 [5] of 2.05 nM and an IC50 [6] of 1.68 nM. The IC50 [7] was 1.05 nM, the IC50 [8] was 0.91 nM and the IC50 [9] was 0.43 nM. The IC50 [10] was 0.66 nM.

With `CCN1Cc2c(c(OCC#N)nn2[C@@H](C)CO)/C=C/c2n[nH]c3cnc(cc23)-c2c(C)nn(C)c2O[C@H](C)C1` [Ex. 58, {[(10R,17E)-12-ethyl-14-[(2S)-1-hydroxypropan-2-yl]-6,8,10-trimethyl-2,10,11,12,13,14-hexahydro-8H-5,3-(azenometheno)tripyrazolo[3,4-f:3′,4′-j:4″,3″-n][1,4]oxazacyclopentadecin-16-yl]oxy}acetonitrile] the IC50 [1] was 14.7 nM, the IC50 [2] was 0.72 nM and the IC50 [3] was 21.5 nM. The IC50 [4] was 2.44 nM, the IC50 [5] was 2.34 nM and the IC50 [6] was 1.11 nM. For the same compound, the IC50 [7] was 1.38 nM, the IC50 [8] was 1.01 nM and the IC50 [9] was 0.55 nM. The IC50 [10] was 0.75 nM.

For `Cc1nn(C)c2c1-c1cc3c(n[nH]c3c(C)n1)/C=C/c1c(OCC#N)nn(CCO)c1CN(C)C[C@H](C)O2` [Ex. 63, {[(10S,17E)-14-(2-hydroxyethyl)-6,8,10,12,20-pentamethyl-2,10,11,12,13,14-hexahydro-8H-5,3-(azenometheno)tripyrazolo[3,4-f:3,4′-j:4″,3″-n][1,4]oxazacyclopentadecin-16-yl]oxy}acetonitrile], the IC50 [1] was 9.62 nM, the IC50 [2] was 0.39 nM and the IC50 [3] was 57.3 nM. The IC50 [4] was 13.8 nM, the IC50 [5] was 3.31 nM and the IC50 [6] was 2.38 nM. It also gave an IC50 [7] of 1.09 nM, an IC50 [8] of 0.6 nM and an IC50 [9] of 0.36 nM. The IC50 [10] was 2.7 nM.

`Cc1nn(CCO)c2c1/C=C/c1n[nH]c3c(C)nc(cc13)-c1cnn(C)c1O[C@@H](C)CN(C)C2` [Ex. 51, 2-[(10S,17E)-8,10,12,16,20-pentamethyl-2,8,10,11,12,13-hexahydro-14H-5,3-(azenometheno)tripyrazolo[3,4-f:3′,4′-j:4″,3″-n][1,4]oxazacyclopentadecin-14-yl]ethan-1-ol] was tested, and the IC50 [2] was 1.11 nM, the IC50 [7] was 0.83 nM and the IC50 [8] was 0.37 nM. The IC50 [9] was 0.31 nM.

For `Cc1nn(C)c2c1-c1cc3c(n[nH]c3cn1)/C=C/c1c(OCC#N)nn(CCO)c1CN(C)[C@H](C)CO2` [Ex. 49, {[(11R,17E)-14-(2-hydroxyethyl)-6,8,11,12-tetramethyl-2,10,11,12,13,14-hexahydro-8H-5,3-(azenometheno)tripyrazolo[3,4-f:3′,4′-j:4″,3″-n][1,4]oxazacyclopentadecin-16-yl]oxy}acetonitrile], the IC50 [2] was 0.19 nM, the IC50 [7] was 0.34 nM and the IC50 [8] was 0.21 nM. For the same compound, the IC50 [9] was 0.12 nM.

`CCOc1nn(CCO)c2c1/C=C/c1n[nH]c3cnc(cc13)-c1cnn(C)c1O[C@@H](C)CN(CC)C2` [Ex. 34, 2-[(10S,17E)-16-ethoxy-12-ethyl-8,10-dimethyl-2,8,10,11,12,13-hexahydro-14H-5,3-(azenometheno)tripyrazolo[3,4-f:3′,4′-j:4″,3″-n][1,4]oxazacyclopentadecin-14-yl]ethan-1-ol] was tested, and the IC50 [1] was 1.75 nM, the IC50 [2] was 0.11 nM and the IC50 [4] was 4.22 nM. The IC50 [7] was 0.31 nM, the IC50 [8] was 0.28 nM and the IC50 [9] was 0.12 nM. It also gave an IC50 [10] of 0.39 nM.

Work on `CCOc1nn(CCO)c2c1/C=C/c1n[nH]c3c(C)nc(cc13)-c1cnn(C)c1O[C@H](C)CN(CC)C2` [Ex. 37, 2-[(10R,17E)-16-ethoxy-12-ethyl-8,10,20-trimethyl-2,8,10,11,12,13-hexahydro-14H-5,3-(azenometheno)tripyrazolo[3,4-f:3′,4′-j:4″,3″-n][1,4]oxazacyclopentadecin-14-yl]ethan-1-ol] yielded an IC50 [2] of 1.62 nM, an IC50 [7] of 0.79 nM and an IC50 [8] of 0.71 nM. For the same compound, the IC50 [9] was 0.31 nM.

For `Cc1nn(C)c2c1-c1cc3c(n[nH]c3cn1)/C=C/c1c(OCC#N)nn(CCO)c1CN(C)C[C@@H](C)O2` [Ex. 42, {[(10R,17E)-14-(2-hydroxyethyl)-6,8,10,12-tetramethyl-2,10,11,12,13,14-hexahydro-8H-5,3-(azenometheno)tripyrazolo[3,4-f:3′,4′-j:4″,3″-n][1,4]oxazacyclopentadecin-16-yl]oxy}acetonitrile], the IC50 [2] was 0.35 nM, the IC50 [7] was 0.83 nM and the IC50 [8] was 0.56 nM. For the same compound, the IC50 [9] was 0.29 nM.

With `CCN1CCOc2c(c(C)nn2C)-c2cc3c(n[nH]c3cn2)/C=C/c2c(OCC#N)nn([C@@H](C)CO)c2C1` [Ex. 66, {[(17E)-12-ethyl-4-[(2S)-1-hydroxypropan-2-yl]-6,8-dimethyl-2,10,11,12,13,14-hexahydro-8H-5,3-(azenometheno)tripyrazolo[3,4-f:3′,4′-j:4″,3″-n][1,4]oxazacyclopentadecin-16-yl]oxy}acetonitrile] the IC50 [2] was 0.42 nM, the IC50 [7] was 1.04 nM and the IC50 [8] was 0.54 nM. The IC50 [9] was 0.36 nM.
